From US20250197831A1, “LACTASE SOLUTION” (GODO SHUSEI CO., LTD., priority 2021, published 2025)
Counter-ions that a name gives are not always drawn.

What was measured:
[1] = Filter permeability test of the lactase solution (slope −a of flux vs permeate); type: physicochemical; conditions: for Slope (−a) Before Shaking: immediately after preparation; for Slope (−a) After Shaking: shaken at 20° C., 30 mm, 100 spm, 1 hour
Description: The detailed conditions in this example of the filter permeability test will be described in detail below.
The following operation was performed in an environment of 5 to 15° C. • 1. A measuring apparatus, a lactase solution sample, and distilled water were cooled to the test environment temperature. • 2. The lactase solution sample was diluted with distilled water or concentrated by ultrafiltration to adjust the lactase activity to 16,000 to 17,500 U/g and mixed well. • 3. In the test, one in which a 25 nun stainless steel filter holder (manufactured by PALL Corporation, product number 1209 (effective membrane area: 3.7 cm^2)) is connected to a stainless steel holder with a 47 mm tank (Advantec Toyo Kaisha, Ltd., product name “KST-47”) was used as an apparatus. A sample permeating portion in the filter holder is configured to include an O-ring, a membrane, a support screen, and an underdrain disc from the measurement sample inlet side (in the test of the present invention, the filter of the stainless steel holder with the tank and the parts of the filter bolding portion (the support screen and the support thereof) were not attached). As the membrane, DURAPORE (product name) (pore diameter: 0.22 μm, φ25 mm, made of hydrophilic PVDF) manufactured by Merck Millipore was used, and as the support screen, Type 316 stainless steel attached to the filter holder was used. In addition, in order to adjust the permeation rate, four circular label stickers (manufactured by A-One Co., Ltd., product name A-one color label 07010) having a diameter of 0.9 cm were stuck symmetrically to an upper portion of the support screen (measurement sample inlet side) (effective membrane area: 1.26 cm^2), and a membrane filter (pore diameter: 0.22 μm) was set. The membrane was rinsed with a 50% glycerin aqueous solution and attached to the stainless steel filter holder. • 4. The lactase solution sample (sample) diluted in 2. was charged into the stainless steel holder with the tank. • 5. A pressure of 0.2 MPa was applied to the stainless steel holder with the tank using an air compressor (manufactured by Yaezaki Kuatsu Co., Ltd., product name “KAPSEL-CON YC-3R” or “PC4-15HLM”), and the enzyme solution was pumped. The permeate was received in a container such as a beaker, the amount of the permeate was recorded every 10 seconds, and (1) the permeation amount (permeate (kg/m^2)) and (2) the permeation rate (flux (kg/min×m^2)) per square meter of the membrane were determined by the following method. In addition, the slope a of an approximate curve y=ax+b obtained when (1) is plotted on the x axis and (2) is plotted on the y axis was determined.
Permeate (kg/m^2)=weight (g) of product that permeated at point n/(membrane radius (mm))×membrane radius (mm)×circumference ratio)(m^2)×1000 (1)
Flux (kg/min×m^2)=(permeate at point n−permeate at point (n−1))/(permeation time (min) at point n−permeation time (min) at point (n−1)) (2) • *n indicates a measurement point. In order to record the permeation amount for every 10 seconds, for example, when the point n is for the permeation amount or permeate at the time of permeation for 10 seconds, the point (n−1) is for the permeation amount of permeate at the time of permeation for 0 seconds.
(§1) A predetermined amount of a given additive was added to GODO-YNL2LS, and the slope (−a) showing filter permeability and the residual activity of lactase activity were measured.
Each lactase solution was obtained by adding the additive shown in the table in a predetermined amount to 60,000 U/g GODO-YNL2LS. […] The lactase activity of each lactase solution after storage at 50° C. for 3 days was measured.

lactase = target: T1, lactase (Kluyveromyces lactis, UniProt P00723); test: Residual activity of lactase activity after storage; type: physicochemical; conditions: for Residual Activity: storage at 50° C. for 3 days; for residual activity of lactase activity after storage (storage stability test): 0.005% and 0.01% in 60,000 U/g lactase solution, stored at 12° C. for 30 days
T1 construct: purchased GODO SHUSEI CO., LTD; GODO-YNL2LS
T1 sequence (P00723 whole entry): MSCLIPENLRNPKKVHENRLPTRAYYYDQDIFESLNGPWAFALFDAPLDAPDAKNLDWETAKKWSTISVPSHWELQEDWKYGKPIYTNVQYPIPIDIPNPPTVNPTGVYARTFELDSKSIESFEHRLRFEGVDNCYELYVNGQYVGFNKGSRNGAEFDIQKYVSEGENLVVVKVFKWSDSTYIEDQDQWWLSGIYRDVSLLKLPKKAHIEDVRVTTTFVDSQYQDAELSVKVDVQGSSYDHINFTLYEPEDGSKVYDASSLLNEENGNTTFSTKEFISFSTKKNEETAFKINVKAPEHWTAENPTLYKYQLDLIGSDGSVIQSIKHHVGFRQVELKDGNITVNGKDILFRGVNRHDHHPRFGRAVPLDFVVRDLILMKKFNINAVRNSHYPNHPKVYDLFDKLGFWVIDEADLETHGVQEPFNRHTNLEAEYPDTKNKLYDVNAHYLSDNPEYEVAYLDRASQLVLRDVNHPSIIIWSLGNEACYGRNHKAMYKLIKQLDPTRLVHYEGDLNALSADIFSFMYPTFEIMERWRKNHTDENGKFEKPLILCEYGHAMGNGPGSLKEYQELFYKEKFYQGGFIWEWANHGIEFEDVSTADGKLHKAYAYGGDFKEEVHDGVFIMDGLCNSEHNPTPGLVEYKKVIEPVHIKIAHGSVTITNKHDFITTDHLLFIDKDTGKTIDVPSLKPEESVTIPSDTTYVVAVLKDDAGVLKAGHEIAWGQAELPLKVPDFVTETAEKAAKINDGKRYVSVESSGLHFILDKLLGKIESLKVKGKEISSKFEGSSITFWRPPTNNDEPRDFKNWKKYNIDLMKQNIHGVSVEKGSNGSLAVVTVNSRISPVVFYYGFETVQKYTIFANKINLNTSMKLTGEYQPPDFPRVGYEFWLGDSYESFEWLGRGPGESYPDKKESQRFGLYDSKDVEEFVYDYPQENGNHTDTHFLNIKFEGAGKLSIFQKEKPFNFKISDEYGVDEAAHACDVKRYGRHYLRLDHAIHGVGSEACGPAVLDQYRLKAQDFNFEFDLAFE
Description: In the following examples and the like, commercially available GODO-YNL2LS (manufactured by GODO SHUSEI CO., LTD.) was used as the lactase solution. […]
A diluted enzyme solution (0.5 mL) and 0.5 mL of a basic buffer (100 mM phosphate buffer (pH 6.5) containing 0.1 mM manganese chloride) are mixed, and the mixture is preheated at 37° C. for 3 minutes, and then, 1.0 mL of a 1.65 mM O-nitrophenyl-β-D-galactopyranoside (ONPG) aqueous solution is added thereto to cause a reaction at 37° C. for 1 minute. After 2.0 mL of a reaction stop solution (200 mM sodium carbonate) was added thereto, the absorbance at OD 420 nm was measured. One unit (U) is the enzyme activity that increases the OD […] by 1 from the substrate in 10 minutes.
as §1
Each lactase solution was obtained by adding the additive shown in the table in a predetermined amount to 60,000 U/g GODO-YNL2LS. Each lactase solution immediately after preparation was subjected to a filter permeability test and a lactase activity measurement by the above-mentioned methods. […]
In a container, 0.03 g of a saturated fatty acid and 1 mL of a 1 M aqueous sodium hydroxide solution were mixed, and 4 mL of distilled water was added thereto. The mixture was subjected to a saponification treatment in boiling water at 100° C. for 5 minutes, then left to cool to room temperature, and the reaction product was added to 294 g of a total amount of the lactase solution (GODO-YNL2LS) (addition amount: 0.01%). The filtrate obtained by filtering this was subjected to a filter permeability test and a residual activity of lactase activity.
In this example, 108 g of 99% glycerin was mixed with 0.03 g of the unsaturated fatty acid in a container. The mixture was added to 192 g of a total amount of the lactase solution (GODO-YNL2LS) (addition amount: 0.01%). The filtrate obtained by filtering this was subjected to a filter permeability test and a residual activity of lactase activity.

SMILES	Slope (−a) Before Shaking ([1]; additive 0.01 % in GODO-YNL2LS)	Slope (−a) After Shaking ([1]; additive 0.01 %)	Residual Activity (lactase; additive 0.01 %) [%]	also measured
C[N+](C)(C)CC(=O)O [Betaine Hydrochloride]	–	–	–	Slope Before Shaking ([1]; Table 2, addition amount 0.1, immediately after preparation): 0.0291; Residual Activity (lactase; Table 2, addition amount 0.1): 66.5%
N[C@@H](CS)C(=O)O [Cysteine]	–	–	–	Residual Activity (lactase; Table 2, addition amount 0.02): 1.1%
CCCCC/C=C\C/C=C\CCCCCCCC(=O)O [Linoleic Acid]	0.0265	0.0253	61.1	residual activity of lactase activity after storage (storage stability test) (lactase): practical level
CCCCCCCCCC(=O)[O-].[Na+] [Na Decanoate]	0.0228	–	–	–
CCCCCCCCCCCC(=O)[O-].[Na+] [Na Laurate]	0.0176	0.0590	–	–
CCCCCCCCCCCCCC(=O)[O-].[Na+] [Na Myristate]	0.0147	–	70.7	–
CCCCCCCC/C=C\CCCCCCCC(=O)[O-].[Na+] [Na Oleate]	–	–	71.4	Slope (−a) Before Shaking ([1]; additive 0.005 % in GODO-YNL2LS): 0.0243; Slope (−a) After Shaking ([1]; additive 0.005 %): 0.0216; Slope (−a) Before Shaking ([1]; additive 0.1 % in GODO-YNL2LS): 0.0542; Slope (−a) After Shaking ([1]; additive 0.1 %): 0.0405; Residual Activity (lactase; additive 0.005 %): 64.3%
CCCCCCCCCCCCCCCC(=O)[O-].[Na+] [Na Palmitate]	0.0200	deteriorated	61.5	–
CCCCCCCCCCCCCCCCCC(=O)[O-].[Na+] [Na Stearate]	0.0273	deteriorated	61.9	–
CCCCCCCC/C=C\CCCCCCCC(=O)O [Oleic Acid]	0.0272	0.0407	72.0	residual activity of lactase activity after storage (storage stability test) (lactase): practical level
N[C@@H](CCC(=O)N[C@@H](CS)C(=O)NCC(=O)O)C(=O)O [Reduced Glutathione]	–	–	–	Residual Activity (lactase; Table 2, addition amount 0.02): 19.9%
